Assay results as given in patent US10611732B2, “HIV replication inhibiting pyrimidines” (Janssen Pharmaceutica NV, priority 2001, dated 2020).
Read-outs that look alike come from different tables or passages of the source.

Columns and labels:
mock-infected MT-4 cells = assay: cytotoxicity in mock-infected MT-4 cells (MTT)
Protocol: (§1) A rapid, sensitive and automated assay procedure was used for the in vitro evaluation of anti-HIV agents. An […] T4-cell line, MT-4, which was previously shown (Koyanagi et al., Int. J Cancer, 36, 445-451, 1985) to be highly susceptible to and permissive for HIV infection, served as the target cell line. Inhibition of the HIV-induced cytopathic effect was used as the end point. The viability of both HIV- and mock-infected cells was assessed spectrophotometrically via the in situ reduction of 3-(4,5-dimethylthiazol-2-yl)-2,5-diphenyltetrazolium bromide (MTT). The 50% cytotoxic concentration (CC50 in M) was defined as the concentration of compound that reduced the absorbance of the mock-infected control sample by 50%. The percent protection achieved by the compound in HIV-infected cells was calculated by the following formula:
(§2) [formula] whereby (ODT)HIV is the optical density measured with a given concentration of the test compound in HIV-infected cells; (ODC)HIV is the optical density measured for the control untreated HIV-infected cells; (ODC)MOCK is the optical density measured for the control untreated mock-infected cells; all optical density values were determined at 540 nm. The dose achieving 50% protection according to the above formula was defined as the 50% inhibitory concentration (IC50 in M). The ratio of CC50 to IC50 was defined as the selectivity index (SI).
(§3) Table 6 lists the pIC50 (−log IC50), pCC50 (−log CC50) and pSI (pCC50-pIC50) values for the compounds of formula (I).

HIV = assay: microbe, parasite or virus in culture; conditions: for pIC50 (−log IC50): HIV-infected MT-4 cells, dose achieving 50% protection, MTT, OD 540 nm; for pSI (pCC50-pIC50): selectivity index, ratio of CC50 to IC50, as log difference
Protocol: as §1, §2, §3

| Structure (SMILES) | pCC50 (−log CC50) (mock-infected MT-4 cells) | pIC50 (−log IC50) (HIV) | pSI (pCC50-pIC50) (HIV) | pCC50 (−log CC50) (mock-infected MT-4 cells; mock-infected MT-4 cells, concentration reducing absorbance of control by 50%, MTT) |
| --- | --- | --- | --- | --- |
| COc1cc(CCC#N)ccc1Nc1ccnc(Nc2ccc(C#N)cc2)n1 [Compound 251] | 5 M | 8.9 | −3.9 |  |
| Cc1cc(/C=C/C#N)cc(Br)c1Nc1ccnc(Nc2ccc(C#N)cc2)n1 [Compound 248] | 5.7 M | 9.3 | −3.5 |  |
| Cc1cc(/C=C/C#N)cc(-c2ccco2)c1Nc1ccnc(Nc2ccc(C#N)cc2)n1 [Compound 239] | 5 M | 8.9 | −3.9 |  |
| Cc1cc(CCC#N)ccc1Nc1ccnc(Nc2ccc(C#N)cc2)n1 [Compound 227] | <4.0 M | 9.5 | <−5.5 |  |
| Cc1cc(/C=C\Br)cc(C)c1Oc1ccnc(Nc2ccc(C#N)cc2)n1 [Compound 177] | <4.0 M | 8.3 | <−4.3 |  |
| Cc1cc(/C=C/C(=O)N(C)C)cc(C)c1Oc1ccnc(Nc2ccc(C#N)cc2)n1 [Compound 219] | 5 M | 9.1 | −4.1 |  |
| Cc1cc(CN(C)C=NC#N)cc(C)c1Oc1ccnc(Nc2ccc(C#N)cc2)n1 [Compound 174] | 5.3 M | 8.8 | −3.5 |  |
| C/C(=C\C#N)c1cc(C)c(Nc2ccnc(Nc3ccc(C#N)cc3)n2)c(C)c1 [Compound 84] | 4.5 M | 9.0 | −4.5 |  |
| Cc1cc(/C=C/C#N)ccc1Oc1ccnc(Nc2ccc(C#N)cc2)n1 [Compound 230] | <4.0 M | 9.2 | <−5.2 |  |
| CC(C#N)=Cc1cc(C)c(Nc2ccnc(Nc3ccc(C#N)cc3)n2)c(Cl)c1 [Compound 233] | 5.7 M | 9.3 | −3.6 |  |
| Cc1cc(/C=C/C#N)ccc1Nc1ccnc(Nc2ccc(C#N)cc2)n1 [Compound 237] | <4.0 M | 8.9 | <−4.9 |  |
| CCN(C)C(=O)/C=C/c1cc(C)c(Nc2ccnc(Nc3ccc(C#N)cc3)n2)c(C)c1 [Compound 158] | 5.5 M | 8 | −2.5 |  |
| Cc1cc(CC#N)cc(Cl)c1Nc1ccnc(Nc2ccc(C#N)cc2)n1 [Compound 238] | 5.6 M | 9.5 | −3.9 |  |
| Cc1cc(/C=C\C#N)cc(C)c1Nc1ccnc(Nc2ccc(C#N)cc2)n1 [Compound 10] | 6.3 M |  | −2.9 |  |
| Cc1cc(CN(C)CCC#N)cc(C)c1Nc1ccnc(Nc2ccc(C#N)cc2)n1 [Compound 75] | 5.0 M | 9.0 | −4.0 |  |
| Cc1cc(/C=C/c2cccnc2)cc(C)c1Nc1ccnc(Nc2ccc(C#N)cc2)n1 [Compound 146] |  | 8.4 | −3 | 5.4 M |
| N#C/C=C/c1ccc(Nc2ccnc(Nc3ccc(C#N)cc3)n2)c(Br)c1 [Compound 244] | 4 M | 9.2 | −5.2 |  |
